Laboratory results as given in paper PMC7677321, “Purification and biochemical characterization of Hel a 6, a cross-reactive pectate lyase allergen from Sunflower (Helianthus annuus L.) pollen” (Scientific Reports, 2020).

Molecular target: T1, Hel a 6 (Helianthus annuus, UniProt A0A251RNJ1)
T1 construct: gene PLY2; natural protein purified from sunflower pollen
T1 sequence (A0A251RNJ1 23-394): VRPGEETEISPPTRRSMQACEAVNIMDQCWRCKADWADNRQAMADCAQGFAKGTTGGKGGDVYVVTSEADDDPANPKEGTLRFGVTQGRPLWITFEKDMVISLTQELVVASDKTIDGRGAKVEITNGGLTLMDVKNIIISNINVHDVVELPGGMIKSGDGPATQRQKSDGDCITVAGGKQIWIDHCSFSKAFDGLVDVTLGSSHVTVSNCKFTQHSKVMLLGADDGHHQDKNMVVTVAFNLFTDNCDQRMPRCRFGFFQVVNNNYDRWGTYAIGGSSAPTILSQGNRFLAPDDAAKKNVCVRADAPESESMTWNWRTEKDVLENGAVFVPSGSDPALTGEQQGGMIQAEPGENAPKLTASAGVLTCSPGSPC
Experiment: pectate lyase assay, A235 increase
Type: biochemical
Conditions: 10 mM salicylic acid; 0.2% polygalacturonic acid, 0.2 mM CaCl2, 25 mM Tris-HCl pH 8.0, 37 °C (methods; results say 40 °C)

O=C(O)c1ccccc1O [salicylic acid]
pectate lyase assay, A235 increase: the enzyme activity was ceased entirely when salicylic acid was added to the reaction mix
